Values of other authors, collected in patent US12557779B2 (priority 2020, dated 2026).

Target: cannabinoid receptor type 2 (CB2) (Homo sapiens, UniProt P34972)
Sequence (P34972 whole entry, species assumed): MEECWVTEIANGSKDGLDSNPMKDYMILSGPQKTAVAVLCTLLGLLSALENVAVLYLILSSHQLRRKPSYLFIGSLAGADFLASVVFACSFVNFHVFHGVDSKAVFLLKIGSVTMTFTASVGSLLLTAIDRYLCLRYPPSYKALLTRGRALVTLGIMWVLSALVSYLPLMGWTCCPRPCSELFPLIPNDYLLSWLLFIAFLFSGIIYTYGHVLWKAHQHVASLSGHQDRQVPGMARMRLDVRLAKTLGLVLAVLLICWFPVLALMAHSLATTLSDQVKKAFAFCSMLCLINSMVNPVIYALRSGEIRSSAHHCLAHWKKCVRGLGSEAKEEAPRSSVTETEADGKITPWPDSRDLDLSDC

For `C=C(C)[C@@H]1CCC(C)=C[C@H]1c1c(O)cc(CCCCC)cc1O` [CBD, cannabidiol], the “affinity for CB2” value is listed as “minimal affinity”.
